What is called IC50 is the concentration at which inhibition is half-maximal.

One data set relates to Caki-1 cells. The data set is described as follows: ECM crosslinking in kidney cancer cells. The settings on record: 6232 at 10 uM, BAPN at 10 mM. It is filed as cell-based, human. How it is done:
(§1) Immunofluorescence staining of cells was done in μ-Slide 8-well glass bottom chambers (Ibidi, Germany). Cells were fixed with 4% paraformaldehyde for 20 min, permeabilized with 0.5% Triton X-100 for 10 min and blocked in 5% BSA-PBS. Samples were incubated with primary (Collagen I, Fibronectin, F-actin, a-SMA) and secondary Alexa Fluor 647 or 488-labeled antibodies for 1.5 hours at room temperature. Cells were also counterstained with DAPI for 5 min. Images were acquired using ZEN 2012 SP5 (Black) LSM 700 (Carl Zeiss, DE).

A further data set relates to MDA-MB-231 cells. As to the kind of experiment: Doxorubicin chemosensitization in 3D collagen I culture. It is filed as cell-based, human. The settings on record: collagen I-embedded cells, combination with doxorubicin. How it is done: Collagen solution was prepared at a concentration of 0.5-1 mg/ml from the rat tail collagen I (Corning, USA) with a neutralization step including the addition of 1N NaOH solution. Cells were trypsinazed and resuspended in collagen:matrigel mix (1:1). 8×10^3 cells were seeded into 96-well or μ-Slide 8-well glass bottom chambers. After 1 hour of incubation at room temperature, media was added on top of the solidified collagen:matrigel mix. Drug treatments were done 12 hours after cell seeding.
Cells were embedded in type I collagen:matrigel mix as described above. Cells were grown in the presence of doxorubicin or LOX inhibitors alone or combination of LOX inhibitors with doxorubicin for 48 hours. After the treatment, cell viability was measured by using 3D Cell Titer Glo (Promega, USA) kit.

The conditions of data set [1]: in vivo; cited from earlier work.
Data set [2] has as its system MDA-MB-231 cells embedded in collagen I. As to the kind of experiment: ECM crosslinking by collagen and fibronectin immunofluorescence staining. It counts as cell-based, human. How it is done: FIG. 31. […] A. Inhibition of LOX activity in MDA-MB-231 cells treated with 5 μM of the LOX inhibitors. B. Doxorubicin sensitization with 6232 and its analogs, 6403 and 6415, in 3D collagen-I culture. C. Collagen and fibronectin staining of vehicle or 6232 or 6403 or 6415-treated MDA-MB-231 cells embedded in collagen I. BAPN is used as a positive control.
as §1

Another data set relates to MDA-MB-231 xenografts. The data set is described as follows: Acquired doxorubicin resistant xenografts. It is filed as in vivo. As to conditions: BAPN 100 mg/kg added to doxorubicin 2.5 mg/kg. How it is done:
To test the ability of LOX inhibition to overcome doxorubicin resistance in chemotherapy-refractory TNBC in vivo, the inventors first treated MDA-MB-231 xenografts with doxorubicin until an accelerated tumor growth was achieved.
At this point, BAPN (100 mg/kg) was added to half of the doxorubicin-resistant tumors while the rest continued to receive doxorubicin alone (2.5 mg/kg).
FIG. 26. Inhibiting LOX overcomes resistance in acquired doxorubicin resistant MDA-MB-231 xenografts. A. Tumor growth in xenografts treated with low dose doxorubicin until resistance develops followed by treatment with the combination of doxorubicin (2.5 mg/kg) and the LOX inhibitor, BAPN (100 mg/kg). B. Relative LOX activity in tumors from A. C. Representative images of Picrosirius red in tumors from A.

The next data set deals with MDA-MB-15714. As to the kind of experiment: Doxorubicin re-sensitization of collagen I-embedded TNBC cells. It counts as cell-based, human.
In a further data set the test system is TM01278 PDX organoids. As to the kind of experiment: PDX-derived TNBC organoids, combination with doxorubicin. It counts as cell-based, human. As to conditions: BAPN (25 mM) with doxorubicin (40 nM), 3D culture with collagen I, 9 days. How it is done: FIG. 36. Combination of 6403 and 6415 with doxorubicin reduced the growth of the TNBC organoids. A. Representative images of TM01278 PDX organoids at day 0 and day 9 after treatment with doxorubicin (50 nM) and 6403 and 6415 treatments, alone or in combination. B. Quantification of organoid diameter and viability upon combination therapy for 9 days.
TNBC organoids were established from a fresh surgical tissue by cutting the tumor into small pieces and incubating in collagenase A solution with ROCK inhibitor on a shaker at 37° C. for 30 minutes. The collagenase activity was inhibited by adding FBS, and pipetting was done to ensure the formation of almost a single cell solution. After several washes with PBS, the cell pellet was dissolved in matrigel. Breast organoid media containing ROCK and GSK inhibitors was added after the Matrigel solidified. See, Sachs, N. et al. A Living Biobank of Breast Cancer Organoids Captures Disease Heterogeneity. Cell 172, 373-386 e310, doi:10.1016/j.cell.2017.11.010 (2018). For drug testing studies, organoids were disrupted to single cells by digesting at 37° C. for 30 mins with TrypLE (A1217701, Gibco, NY, USA) in the presence of 10 μM Rock inhibitor (s1049, Selleckchem, TX, USA). Organoids were plated into wells of 96 well plate (20.000 cells/well) on a collagen-coated surface with media containing 2% Matrigel (356252, Corning, NY, USA). Drugs were added 72 hours after plating. Cells were grown in the presence of drug or vehicle for 9 days, and photos were taken from each well to show the organoid size. Organoid viability was measured by using 3D Cell Titer Glo (Promega, USA) kit.

In data set [3] the test system is cellular lysyl oxidase (LOX) activity, MDA-MB-231 cells. As to the kind of experiment: Cell-based lysyl oxidase activity assay (Abcam kit). On the set-up: species or system human. The settings on record: read-out: IC50 for cellular lysyl oxidase inhibition. From the text: As the available LOX inhibitors are either not very potent or have toxicity, the inventors developed a robust screening pipeline shown in FIG. 28 to identify potent and safe LOX-specific and pan-LOX inhibitors. Briefly, a high-throughput cell-based LOX activity (Abcam) screen (HTS) was done for more than 5,000 drug-like compounds from the EXPRESS-Pick diversified library (4,480 molecules, ChemBridge) and Tocriscreen library of bioactive compounds (1,280 compounds, Tocris), each at a single concentration of 10 μM. […] The toxic molecules were counter screened with cell cytotoxicity assay and filtered out.
FIGS. 34. […] IC50 for cellular lysyl oxidase activity upon treatment of MDA-MB-231 cells with different LOX inhibitors. uM=microM.
For cell-based lysyl oxidase activity, fluorometric Lysly Oxidase Activity Assay Kit (Abcam, USA) was used according to manufacturer's instructions. Briefly, after the treatment, 50 μl of supernatant from each well was incubated with reagent mix and fluorescence measured in multimode-reader at Ex/Em=540/590 nm wavelength.

Another data set deals with MDA-MB-43614. As to the kind of experiment: Doxorubicin re-sensitization of collagen I-embedded TNBC cells. It is filed as cell-based, human.
For the next data set, the system named is TM01278 PDX. As to the kind of experiment: Doxorubicin-resistant TNBC PDX tumors. It is filed as in vivo. The procedure:
FIG. 27. Targeting LOX in TNBC PDX organoids or tumors overcomes resistance. A. Scheme showing the selection pipeline of PDXs for in vivo testing. B. Correlation analysis of LOX mRNA expression with hypoxia and focal adhesion scores in 15 different TNBC PDX models. Red dots show the positions of the selected TM01278. C. Representative images of TM01278 PDX organoids at day 0 and day 9 after treatment with doxorubicin (40 nM) and BAPN (25 mM) treatment, alone or in combination (left) and quantification of organoid diameter upon combination therapy for 9 days (right) (n=12 (vehicle, Doxo, BAPN), n=11 (Doxo+BAPN)). D. Tumor growth of TM01278 PDX upon treatment with doxorubicin (2 mg/kg) and BAPN (100 mg/kg), alone or in combination (n=5). […] E. Quantification of Picrosirius red staining in PDX tumors from D (n=4). F. Doxorubicin fluorescence quantification in tumors from D (n=6). G. Western Blots of FAK/Src signaling in PDXs treated with doxorubicin and BAPN alone or in combination.

Each structure is given as a SMILES string.

With `N#CCCN` [BAPN, 6-aminopropionitrile], the ECM crosslinking entry in the data set with Caki-1 cells is reported as “decrease in ECM crosslinking”. Moreover, the doxorubicin sensitization result in the data set with MDA-MB-231 cells is “re-sensitized”. For the same compound, in data set [1], the “toxicity in the clinic” value is recorded as “showed toxicity in the clinic”. For the same compound, in data set [2], the “ECM crosslinking (collagen and fibronectin staining)” value is reported as “decrease in ECM crosslinking”. In addition, in the data set on MDA-MB-231 xenografts, the “LOX activity in tumors” value is recorded as “reduction in LOX activity”, the “fibrillar collagen in tumors” value was “reduction”, the survival result was “improved survival” and the tumor growth entry is “significant decrease in tumor growth”. The doxorubicin re-sensitization result in the data set on MDA-MB-15714 was “re-sensitized”. In addition, the tumor organoid size result with TM01278 PDX organoids is given as “significantly decreased tumor organoid size”. For the same compound, the IC50 in [3] was greater than 100 µM. In the data set with MDA-MB-43614, the doxorubicin re-sensitization result is “re-sensitized”. Besides, in the data set on TM01278 PDX (BAPN 100 mg/kg), the LOX activity entry is on record as “reduced”, the doxorubicin penetration entry is listed as “enhanced doxorubicin penetration” and the fibrillar collagen content entry is “reduced”. In addition, the tumor growth result in the data set on TM01278 PDX (BAPN 100 mg/kg with doxorubicin 2 mg/kg) is “reduced tumor growth”.

Source of the values: patent US12642791B2, “Inhibitors of lysyl oxidases” (UNIVERSITY OF SOUTH CAROLINA, priority 2021, dated 2026).
